In EP3504969B1, “COMPOSITION FOR CONTROLLING FUNGAL INFECTION CAUSED BYNOSEMA CERANAE” (Universidad De Chile, priority 2015, dated 2017):

Key:
Nosema ceranae [1] = experiment: Confirmation efficacy test (Marchámalo): spore reduction in infected bees, days 5, 6 and 7; format: in vivo, Apis mellifera; conditions: day 7; CD14 daily dose 4 µg/bee; fumagillin 240 µg/bee; p = 0.0001
Protocol: The AEselec in the previous paragraph (selected for its higher efficacy and higher yield) was assayed to confirm its activity against nosemosis using standardized tests in the Pathology Laboratory of the Centro Agrario de Marchámalo, Spain. Consequently, 3 groups of treatments were used, comprising 3 cages each and 35 bees/cage, born in laboratory, which, after a waiting period of 7 days, were infected with a load of 5 × 10^4 spores per bee. Later, a waiting period of 5 days passed to begin the application of the treatment in the ad libitum feeding. (Higes, 2007; Higes et al., 2010): • 1. Group without infection, negative control (Nl) • 2. Group infected with Nosema spp. spores, untreated positive control to which only 50% sucrose syrup with a 2% L-promoter (IST) shall be given, • 3. Group infected with Nosema spp. spores treated with peumo AE (ICT).
Spores. […] Both environmental variables were monitored through the installation of an environmental thermohygrometer. […]
Figure 6. Effectiveness of CD14 indicated as a percentage of spore reduction on days 5, 6 and 7 days of treatment at a daily dose of CD14, of 4µg/bee and 20 µg/bee of the majority of the evaluated monoterpenes. […]

Nosema ceranae [2] = conditions: laboratory studies; result in words; cited from earlier work

SMILES	inhibited the growth of N. ceranae spores (Nosema ceranae [1])	reducing the spore load of Nosema ceranae (Nosema ceranae [2])
CO[C@@H]1[C@H](OC(=O)/C=C/C=C/C=C/C=C/C(=O)O)CC[C@]2(CO2)[C@H]1[C@@]1(C)O[C@@H]1CC=C(C)C [fumagillin]	about 80%	–
Oc1ccc(C=Cc2cc(O)cc(O)c2)cc1 [resveratrol]	–	significant effects
Cc1ccc(C(C)C)c(O)c1 [thymol]	–	significant effects
